Measured values: PMC2363649, “MDR1 causes resistance to the antitumour drug miltefosine” (British Journal of Cancer, 2001)

How the values were obtained:
P-glycoprotein (PGP) = molecular target: T1, P-glycoprotein (PGP) (Cricetulus griseus, UniProt P21448); assay: MIANS-PGP fluorescence quenching titration; type: binding
T1 construct: gene ABCB1; highly purified PGP from CHR B30 cells, labelled with MIANS at two conserved cysteine residues within the Walker A motifs

ABC transporter YvcC = molecular target: T2, ABC transporter YvcC (Bacillus subtilis, UniProt O06967); assay: binding Kd (data not shown; method not stated)
T2 construct: gene bmrA
T2 sequence (O06967 1-589): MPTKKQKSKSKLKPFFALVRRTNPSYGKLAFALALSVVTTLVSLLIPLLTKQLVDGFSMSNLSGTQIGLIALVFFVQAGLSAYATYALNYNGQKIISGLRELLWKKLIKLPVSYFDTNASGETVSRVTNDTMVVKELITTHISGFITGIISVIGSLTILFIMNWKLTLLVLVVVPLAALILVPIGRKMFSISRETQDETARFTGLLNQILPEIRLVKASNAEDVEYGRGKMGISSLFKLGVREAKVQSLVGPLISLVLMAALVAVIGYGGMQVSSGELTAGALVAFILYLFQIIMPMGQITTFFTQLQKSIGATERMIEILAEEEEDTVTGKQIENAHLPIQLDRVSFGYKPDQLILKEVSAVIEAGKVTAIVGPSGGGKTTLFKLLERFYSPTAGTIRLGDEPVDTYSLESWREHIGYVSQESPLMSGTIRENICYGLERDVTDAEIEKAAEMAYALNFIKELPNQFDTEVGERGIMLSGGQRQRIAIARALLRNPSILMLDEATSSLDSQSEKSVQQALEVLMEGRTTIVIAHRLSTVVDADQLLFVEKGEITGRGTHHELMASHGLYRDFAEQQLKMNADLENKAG

T1 sequence (P21448 whole entry): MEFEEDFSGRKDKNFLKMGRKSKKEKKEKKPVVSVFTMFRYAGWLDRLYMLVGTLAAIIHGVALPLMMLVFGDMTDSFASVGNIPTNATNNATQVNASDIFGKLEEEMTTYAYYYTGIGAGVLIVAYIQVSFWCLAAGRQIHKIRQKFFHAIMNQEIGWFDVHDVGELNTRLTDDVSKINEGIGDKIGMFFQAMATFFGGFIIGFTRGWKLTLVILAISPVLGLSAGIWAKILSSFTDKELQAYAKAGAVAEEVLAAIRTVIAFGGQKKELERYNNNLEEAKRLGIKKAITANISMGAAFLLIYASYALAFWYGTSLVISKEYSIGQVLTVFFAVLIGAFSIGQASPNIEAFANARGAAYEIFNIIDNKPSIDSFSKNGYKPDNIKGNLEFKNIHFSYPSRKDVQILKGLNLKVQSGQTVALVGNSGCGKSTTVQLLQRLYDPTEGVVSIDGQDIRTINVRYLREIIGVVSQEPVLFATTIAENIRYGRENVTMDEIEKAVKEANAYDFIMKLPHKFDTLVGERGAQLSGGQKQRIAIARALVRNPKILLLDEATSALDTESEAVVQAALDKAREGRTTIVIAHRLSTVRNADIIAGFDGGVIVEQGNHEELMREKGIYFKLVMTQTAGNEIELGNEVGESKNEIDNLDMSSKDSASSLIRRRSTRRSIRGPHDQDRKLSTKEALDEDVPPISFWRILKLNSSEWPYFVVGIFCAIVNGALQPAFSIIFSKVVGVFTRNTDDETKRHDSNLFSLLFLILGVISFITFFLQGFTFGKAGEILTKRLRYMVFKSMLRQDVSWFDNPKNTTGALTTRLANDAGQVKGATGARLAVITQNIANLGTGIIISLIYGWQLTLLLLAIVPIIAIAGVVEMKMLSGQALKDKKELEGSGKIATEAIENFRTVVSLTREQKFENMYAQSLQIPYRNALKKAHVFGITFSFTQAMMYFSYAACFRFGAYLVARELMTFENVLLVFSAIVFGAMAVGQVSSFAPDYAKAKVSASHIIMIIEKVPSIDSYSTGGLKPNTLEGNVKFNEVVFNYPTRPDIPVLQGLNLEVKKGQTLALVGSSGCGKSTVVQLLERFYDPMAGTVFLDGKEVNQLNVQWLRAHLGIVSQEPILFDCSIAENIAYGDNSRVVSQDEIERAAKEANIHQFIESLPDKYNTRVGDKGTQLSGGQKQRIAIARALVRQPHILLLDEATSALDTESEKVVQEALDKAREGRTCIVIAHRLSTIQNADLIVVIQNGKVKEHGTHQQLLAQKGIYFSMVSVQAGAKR

In the case of `CCCCCCCCCCCCCCCCOP(=O)([O-])OCC[N+](C)(C)C` [miltefosine], the Kd (P-glycoprotein (PGP)) is reported as roughly 7 µM and the Kd (ABC transporter YvcC) is reported as 2 to 3 µM.
